From patent US11076595B2, “1-(n,n-disubstituted carbamoyl) 4-(substituted sulfonyl)triazolin-5-one derivative, 4-(n,n-disubstituted carbamoyl) 1-(substituted sulfonyl)triazolin-5-one derivative, and herbicide containing said derivative as active ingredient” (HOKKO CHEMICAL INDUSTRY CO., LTD., priority 2017, dated 2021)

Experiments:
Type in all cases: in vivo
Echinochloa crus-galli [1] = assay: Test Example 12: herbicidal effect test by treatment during growing period in paddy field; details: 120 g/10a; treatment seven days after sowing in flooded paddy pot; assessed 14 days after treatment
Experimental: (§1) This test was performed with two replications per one formulation concentration plot, and 14 days after the formulation treatments, the weed suppression rate (%) was determined according to the following equation (Math. 2). Weed suppression rate (%)=(1−average dry weight (g) of plants in treated plots/average dry weight (g) of plants in untreated plots)×100 [Math. 2]
(§2) A Wagner pot having an area of 1/10000 are was filled with paddy field soil and after adding water, a chemical fertilizer (N:P:K=17:17:17) was mixed, followed by puddling. Thereafter, 30 grains of each of Echinochloa crus-galli, broad-leaved weed (Lindernia pyxidaria, Monochoria vaginalis) and Scirpus juncoides seeds were sown to a depth of 0 to 1 cm. Immediately after the sowing, the pot was flooded, and the depth of water was kept at about 3 cm. The pot was subsequently managed in a glass greenhouse. Seven Days after sowing, an emulsifiable concentrate prepared according to Formulation Example 15 by using the compound shown in Table 10 below was diluted with water, and a predetermined amount of the water-diluted formulation was added dropwise. The application rate of the active ingredient, by conversion, corresponded to 120 g per 10 are. The test was performed with two replications per one formulation concentration plot, and 14 days after the formulation treatments, the weed suppression rate (%) was determined according to the equation (Math. 2).

Scirpus juncoides [2] = assay: as above; details: 120 g/10a; treatment seven days after sowing in flooded paddy pot; assessed 14 days after treatment
Experimental: as §1, §2

Monochoria vaginalis [3] = assay: as above; details: 120 g/10a; treatment seven days after sowing in flooded paddy pot; assessed 14 days after treatment
Experimental: as §1, §2

Lindernia pyxidaria [4] = assay: as above; details: 120 g/10a; treatment seven days after sowing in flooded paddy pot; assessed 14 days after treatment
Experimental: as §1, §2

Echinochloa crus-galli [5] = assay: Test Example 11: herbicidal effect test by soil treatment in paddy field; details: 120 g/10a active ingredient, 14 days after treatment
Text: as §2, with “greenhouse. Just” for “greenhouse. Seven Days”, “after that,” for “after sowing,”, “Table 9” for “Table 10”, “are.” for “are. The test was performed with two replications per one formulation concentration plot, and 14 days after the formulation treatments, the weed suppression rate (%) was determined according to the equation (Math. 2).”
as §1

Scirpus juncoides [6] = assay: as above; details: 120 g/10a active ingredient, 14 days after treatment
Text: as §2, with “greenhouse. Just” for “greenhouse. Seven Days”, “after that,” for “after sowing,”, “Table 9” for “Table 10”, “are.” for “are. The test was performed with two replications per one formulation concentration plot, and 14 days after the formulation treatments, the weed suppression rate (%) was determined according to the equation (Math. 2).”
as §1

Monochoria vaginalis [7] = assay: as above; details: 120 g/10a active ingredient, 14 days after treatment
Text: as §2, with “greenhouse. Just” for “greenhouse. Seven Days”, “after that,” for “after sowing,”, “Table 9” for “Table 10”, “are.” for “are. The test was performed with two replications per one formulation concentration plot, and 14 days after the formulation treatments, the weed suppression rate (%) was determined according to the equation (Math. 2).”
as §1

Lindernia pyxidaria [8] = assay: as above; details: 120 g/10a active ingredient, 14 days after treatment
Text: as §2, with “greenhouse. Just” for “greenhouse. Seven Days”, “after that,” for “after sowing,”, “Table 9” for “Table 10”, “are.” for “are. The test was performed with two replications per one formulation concentration plot, and 14 days after the formulation treatments, the weed suppression rate (%) was determined according to the equation (Math. 2).”
as §1

Row | SMILES | Weed suppression rate (%) Echinochloa crus-galli (Echinochloa crus-galli [1]) | Weed suppression rate (%) Scirpus juncoides (Scirpus juncoides [2]) | Weed suppression rate (%) Monochoria vaginalis (Monochoria vaginalis [3]) | Weed suppression rate (%) Lindemia pyxidaria (Lindernia pyxidaria [4]) | Weed suppression rate (%) Echinochloa crus-galli (Echinochloa crus-galli [5]) | Weed suppression rate (%) Scirpus juncoides (Scirpus juncoides [6]) | Weed suppression rate (%) Monochoria vaginalis (Monochoria vaginalis [7]) | Weed suppression rate (%) Lindemia pyxidaria (Lindernia pyxidaria [8])
1 | CC(C)N(C(=O)n1cnn(S(C)(=O)=O)c1=O)c1ccccc1F [Compound 11-2] | 90% | 90% | 80% | 90% | 90% | 90% | 80% | 80%
2 | CC(C)N(C(=O)n1cnn(S(C)(=O)=O)c1=O)c1cccc(F)c1 [Compound 11-3] | 90% | 90% | 80% | 80% | 90% | 90% | 80% | 80%
3 | CC(C)N(C(=O)n1cnn(S(C)(=O)=O)c1=O)c1ccc(F)c(F)c1F [Compound 11-15] | 70% | 100% | 60% | 60% | 90% | 60% | 60% | 70%
4 | CC(C)N(C(=O)n1cnn(S(C)(=O)=O)c1=O)c1ccc(Cl)cc1F [Compound 11-20] | 70% | 60% | 60% | 40% | 70% | 80% | 40% | 40%
5 | CC(C)N(C(=O)n1cnn(S(=O)(=O)C(C)C)c1=O)c1cccc(F)c1 [Compound 11-50] | 90% | 90% | 80% | 80% | 90% | 90% | 80% | 80%
6 | CC(C)N(C(=O)n1cnn(S(=O)(=O)C(C)C)c1=O)c1ccc(Br)cc1Cl [Compound 11-70] | 100% | 100% | 90% | 70% | 100% | 100% | 90% | 100%
7 | Cc1cc(N(C(=O)n2cnn(S(=O)(=O)C(C)C)c2=O)C(C)C)no1 [Compound 11-91] | 90% | 90% | 80% | 80% | 90% | 90% | 80% | 80%
8 | CN(C(=O)n1cnn(S(=O)(=O)C2CC2)c1=O)c1ccc(F)cc1F [Compound 11-140] | 100% | 100% | 70% | 70% | 90% | 80% | 70% | 70%
9 | CC(C)N(C(=O)n1cnn(S(=O)(=O)C2CC2)c1=O)c1cccc(F)c1 [Compound 11-161] | 90% | 90% | 80% | 80% | 100% | 90% | 70% | 100%
10 | CC(C)N(C(=O)n1cnn(S(=O)(=O)C2CC2)c1=O)c1c(F)c(F)cc(F)c1F [Compound 11-197] | 100% | 90% | 100% | 80% | 100% | 100% | 70% | 100%
11 | CC(C)N(C(=O)n1cnn(S(=O)(=O)C2CC2)c1=O)c1ccc(Cl)cc1Br [Compound 11-210] | 90% | 90% | 80% | 80% | 90% | 90% | 80% | 90%
12 | CC(C)N(C(=O)n1cnn(S(=O)(=O)C2CC2)c1=O)c1ccc(C(F)(F)F)cc1Cl [Compound 11-220] | 90% | 80% | 90% | 90% | 100% | 90% | 60% | 90%
13 | Cc1nn(S(=O)(=O)C2CC2)c(=O)n1C(=O)N(c1ccc(F)cc1F)C(C)C [Compound 11-246] | 90% | 90% | 80% | 80% | 90% | 90% | 80% | 80%
14 | CC(C)N(C(=O)n1cnn(S(=O)(=O)C2CCCCC2)c1=O)c1ccc(Br)cc1Cl [Compound 11-305] | 100% | 100% | 100% | 90% | 100% | 90% | 100% | 100%
15 | Cc1cc(F)ccc1N(C(=O)n1cnn(S(=O)(=O)C2CCCCC2)c1=O)C(C)C [Compound 11-307] | 90% | 60% | 60% | 70% | 80% | 80% | 70% | 70%
16 | Cc1ccc(S(=O)(=O)n2ncn(C(=O)N(c3ccc(Br)cc3Cl)C(C)C)c2=O)cc1 [Compound 11-648] | 60% | 90% | 70% | 60% |  |  |  | 
17 | CC(C)N(C(=O)n1cnn(S(=O)(=O)N(C)C)c1=O)c1c(F)c(F)cc(F)c1F [Compound 11-1069] | 90% | 60% | 70% | 70% |  |  |  | 
18 | CN(C(=O)n1cnn(S(=O)(=O)c2ccc(Cl)cc2)c1=O)c1ccc(F)cc1F [Compound 11-1134] | 80% | 100% | 70% | 70% |  |  |  | 
19 | CN(C(=O)n1cnn(S(=O)(=O)c2ccc(C(C)(C)C)cc2)c1=O)c1ccc(F)cc1F [Compound 11-1141] | 90% | 60% | 80% | 70% |  |  |  | 
